Columns and labels:
[1] = La^3+ titration with macropa (UV, pH 7.4); format: physicochemical; conditions: pH 7.4, MOPS buffer, RT
Procedure: (§1) La^3+ and Lu^3+ Titrations with Macropa. The pH of a 10 mM 3-(N-morpholino)propanesulfonic acid (MOPS) buffer was adjusted to 7.4 using aqueous NMe4OH. The ionic strength was set at 100 mM using NMe4Cl. Stock solutions of LaCl3.6.8H2O (40 mM) and LuCl3.6H2O (21 mM) were prepared in 1 mM HCl. A stock solution of H2macropa.2HCl.4H2O (8.8 mM) was prepared in MOPS buffer. From these stock solutions, titration solutions containing macropa (100 μM) and either LaCl3 or LuCl3 were prepared in MOPS. Each metal ion titration was carried out at RT by adding 5-10 μL aliquots of titrant to a cuvette containing 3000 μL of macropa (100 μM) in MOPS. Each sample was allowed to equilibrate for 5 min following every addition before a spectrum was acquired. Complexation of the metal ion was monitored by the decrease in absorbance at 268 nm, the λmax of macropa. Titrant was added until no further spectral changes were detected.

[2] = Lu^3+ titration with macropa (UV, pH 7.4); format: physicochemical; conditions: pH 7.4, MOPS buffer, RT
Procedure: as §1

[3] = La^3+ complex of macropa; cited from earlier work
[4] = Lu^3+ complex of macropa; cited from earlier work

## O=C(O)c1cccc(CN2CCOCCOCCN(Cc3cccc(C(=O)O)n3)CCOCCOCC2)n1 [macropa, N,N′-bis[(6-carboxy-2-pyridil)methyl]-4,13-diaza-18-crown-6]
[1]
  affinity of La^3+ for macropa by titration: high affinity
[2]
  affinity of Lu^3+ for macropa by titration: high affinity
[3]
  stability constant log KLaL: 14.99
[4]
  stability constant log KLuL: 8.25
